Results published in patent US20250018068A1, “4H-IMIDAZO[1,5-B]PYRAZOLE DERIVATIVES FOR DIAGNOSIS” (AC IMMUNE SA, priority 2021, published 2025).
Entries after “also recorded” stand apart in the source; their conditions may differ. Counter-ions that a name gives are not always drawn.

How the values were obtained:
Tau aggregates = experiment: High resolution micro-autoradiography on AD tissue containing pathological Tau aggregates; type: binding, human
Method: (§1) The protocol was adapted from Marquie et al., 2015. Sections were incubated with tritiated example compound 1 ([^3H]-Example-1) at 10 nM or 20 nM or a reference Tau ligand ([^3H]-Tau-Ref at 20 nM for one hour at room temperature (RT). Sections were then washed as follows: One time in ice-cold 50 mM Tris-HCl pH 7.4 buffer for one minute, two times in 70% ice-cold ethanol for one minute, one time in ice-cold 50 mM Tris-HCl pH 7.4 buffer for one minute and finally rinsed briefly in ice-cold distilled water. Sections were subsequently dried and then exposed to Ilford Nuclear Emulsion Type K5 (Agar Scientific, AGP9281) in a light-proof slide storage box. After five days, the sections were developed by immersing them successively in the following solutions: 1.) Ilford Phenisol Developer (1:5 dilution in H2O, Agar Scientific, AGP9106), 2.) Ilfostop solution (1:20 dilution in H2O, Agar Scientific, AGP9104), 3.) Ilford Hypam Fixer (1:5 dilution in H2O, Agar Scientific, AGP9183) and finally rinsed with H2O.
(§2) When indicated, immunostaining was also performed on the same section. For image acquisition, sections were mounted using ProLong Gold Antifade reagent (Invitrogen P36930) and imaged on a Panoramic150 Slide Scanner (3DHistech) with a 20×objective capturing separately brightfield and fluorescent images.

[1] = target: T1, PD brain-derived alpha-synuclein aggregates (Homo sapiens, UniProt P37840); experiment: Saturation binding on PD brain-derived alpha-synuclein aggregates by micro-radiobinding; settings: PD brain tissue homogenates
T1 construct: from tissue; host or cells: human PD donor brain, sarkosyl-insoluble pellet
Method: The procedure was adapted from the protocol described in Spillantini et al., 1998. Frozen tissue blocks from PD donors were thawed on ice and homogenized using a glass dounce homogenizer. The homogenate was then centrifuged at 11,000×g (12,700 RPM) in an ultracentrifuge (Beckman, XL100K) for 20 minutes at 4° C. using a pre-cooled 70.1 rotor (Beckman, 342184). Pellets were resuspended in extraction buffer [10 mM Tris-HCl pH 7.4, 10% sucrose, […], 1% protease inhibitor (Calbiochem 539131), 1 mM EGTA, 1% phosphatase inhibitor (Sigma P5726 and P0044)] and centrifuged at 15,000×g (14,800 RPM, a 70.1 Ti rotor) for 20 minutes at 4° C. […]
PD brain-derived alpha-synuclein aggregates were spotted onto microarray slides. […] Following exposure, phosphor storage screens were scanned with a laser imaging system (Typhoon FLA 7000) to readout the signal from the radiobinding experiments described above. Quantification of the signal was performed using the ImageJ software package. Non-specific signal was determined with an excess of non-radiolabelled reference ligand (Example-1 at 2 μM) and specific binding was calculated by subtracting the non-specific signal from the total signal. Kd values were calculated in GraphPad Prism7 by applying a nonlinear regression curve fit using a one site specific binding model.

[2] = target: T2, alpha-synuclein aggregates (Lewy bodies and Lewy neurites) (Homo sapiens, UniProt P37840); experiment: High resolution micro-autoradiography, target engagement in alpha-synucleinopathy tissues; type: binding; settings: frozen human brain sections, PD, MSA, DLB, LBV, PDD; 10 nM or 20 nM
T2 construct: performed on frozen human brain sections from different alpha-synucleinopathy cases; from tissue; host or cells: frozen human brain sections (PD, PDD, MSA, DLB, LBV)
Method: as §1
as §2, with “images. […]” for “images.”

[3] = target: T3, pathological alpha-synuclein aggregates (Homo sapiens, UniProt P37840, G51D); experiment: Autoradiography on frozen human brain sections (specific binding, Kd)
T3 construct: Frozen human brain sections from one familial PD case; from tissue; host or cells: frozen human brain sections: SNCA (G51D) familial PD, PDD, MSA, LBV, non-demented controls
Method: (§3) Frozen human brain sections from one familial PD case (alpha-synuclein [SNCA] gene G51D missense mutation), labelled as SNCA (G51D), one PDD case, one MSA case, one LBV case and two non-demented control (NDC) cases were first briefly fixed for 15 minutes at 4° C. with 4% paraformaldehyde (Sigma, 252549) and washed three times for five minutes with PBS (Dulbecco's phosphate buffered saline, Sigma) at RT. All slides were then equilibrated for 20 minutes in 50 mM Tris-HCl pH 7.4 buffer prior to use in the experiment. Each brain section was incubated with a fixed concentration (10 nM) of tritiated example compound 1 ([^3H]-Example-1) or increasing concentrations of [^3H]-Example-1 in the range of 2.5 nM to 80 nM of tritiated compound in Tris-HCl buffer for two hours at RT (Total binding, ‘TB’). To determine non-specific (NSB) binding ([^3H]-Example-1 was mixed with 5 μM of non-radiolabelled compound (Example 1, self-block, ‘NSB’). The slides were washed and then exposed and scanned in a real-time autoradiography system (BeaQuant instrument, ai4R). Specific binding was determined by subtracting the non-specific signal from the total signal. Kd values were calculated in GraphPad Prism7 by applying a nonlinear regression curve fit using a one site specific binding model.

[4] = test system: pathological alpha-synuclein aggregates; experiment: as above; settings: 10 nM
Method: as §3

[5] = target: T4, Abeta pathological aggregates (Homo sapiens, UniProt P05067); experiment: Radiobinding competition assay on AD brain homogenates, displacement of [3H]-Abeta-Ref; type: binding
T4 construct: Abeta pathological aggregates present in the human AD brain homogenates; from tissue; host or cells: human AD donor brain, Triton/sucrose-insoluble fraction
T4 sequence (P05067 672-713 limits assumed): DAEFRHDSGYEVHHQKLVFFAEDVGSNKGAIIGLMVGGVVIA
Method: The procedure was adapted from the protocol described in Bagchi et al., 2013. Frozen tissue blocks from AD donors were thawed on ice and homogenized in high salt buffer (50 mM Tris-HCl pH 7.5, 0.75M NaCl, 5 mM EDTA) supplemented with protease inhibitors (Complete; Roche 11697498001) at 4° C. using a glass Dounce homogenizer. The homogenate was centrifuged at 100,000×g (38,000 RPM) in an ultracentrifuge (Beckman, XL100K) for one hour at 4° C. using a pre-cooled 70.1 rotor (Beckman, 342184). Pellets were resuspended in high salt buffer supplemented with 1% Triton X-100 and homogenized at 4° C. using a glass Dounce homogenizer. […]
A fixed concentration of AD insoluble fraction was incubated with a tritiated reference Abeta ligand ([^3H]-Abeta-Ref) at 10 nM and increasing concentrations of non-radiolabelled example compound 1 in the range of […] to 2 μM for two hours at RT. […] The filters were analyzed on a Microbeta2 scintillation counter (PerkinElmer). Non-specific signal was determined with an excess of non-radiolabelled reference ligand (2 μM) and specific binding was calculated by subtracting the non-specific signal from the total signal. Competition was calculated as percent, where 0% was defined as the specific binding in the presence of vehicle and 100% as the values obtained in the presence of excess of the non-radiolabelled reference ligand. […]

[6] = target: T1, PD brain-derived alpha-synuclein aggregates; experiment: Micro-radiobinding competition assay for the determination of binding affinity; settings: human PD brain-derived alpha-synuclein aggregates; for inhibition at 0.1 µM: 100 nM non-radiolabelled compound, read-out: Micro-radiobinding competition assay Competition at 100 nM (%); for inhibition at 0.1 µM / inhibition at 1 µM: competition over tritiated [3H]-Example-1 ligand; for inhibition at 1 µM: 1 μM non-radiolabelled compound, read-out: Micro-radiobinding competition assay Competition at 1 μM (%); for Ki: * = mean of two independent experiments, two donors
Method: The procedure was adapted from the protocol described in Spillantini et al., 1998. Frozen tissue blocks from PD donors were thawed on ice and homogenized using a glass dounce homogenizer. The homogenate was then centrifuged at 11,000×g (12,700 RPM) in an ultracentrifuge (Beckman, XL100K) for 20 minutes at 4° C. using a pre-cooled 70.1 rotor (Beckman, 342184). Pellets were resuspended in extraction buffer [10 mM Tris-HCl pH 7.4, 10% sucrose, […], 1% protease inhibitor (Calbiochem 539131), 1 mM EGTA, 1% phosphatase inhibitor (Sigma P5726 and P0044)] and centrifuged at 15,000×g (14,800 RPM, a 70.1 Ti rotor) for 20 minutes at 4° C. Pellets were discarded and sarkosyl (20% stock solution, Sigma L7414) was added to the supernatants to a final concentration of 1% at room temperature for one hour. This solution was then centrifuged at 100,000×g (38,000 RPM, 70.1 Ti rotor) for one hour at 4° C. Pellets containing enriched alpha-synuclein aggregates were resuspended in PBS and stored at −80° C. until use.
PD brain-derived alpha-synuclein aggregates were spotted onto microarray slides. The slides were incubated with [^3H]-alpha-synuclein reference at 6 nM or 20 nM and the example compounds (non-radiolabelled) at 1 μM and 100 nM. In some cases, the non-radiolabelled example compounds were further assessed for a range of different concentrations, varying from 0.05 nM to 2 μM. After incubation, slides were washed and scanned by a real-time autoradiography system (BeaQuant, ai4R). Quantification of the signal was performed by using the Beamage image analysis software (ai4R). Non-specific signal was determined with an excess of non-radiolabelled Example-1 (2 μM) and specific binding was calculated by subtracting the non-specific signal from the total signal. Competition was calculated as percent, where 0% was defined as the specific binding in the presence of vehicle and 100% as the values obtained in the presence of excess of the non-radiolabelled Example-1. Ki values were calculated in GraphPad Prism7 by applying a nonlinear regression curve fit using a one site, specific binding model. All measurements were performed with at least two technical replicates. For compounds tested in more than one experiment, the mean of the replicates or Ki values in independent experiments is reported.
Results: Example compounds were assessed for their potency to compete with the binding of [^3H]-reference alpha-synuclein ligand to PD patient brain-derived alpha-synuclein aggregates. Results of the micro-radiobinding competition assay for the example compounds tested are shown in Table 3 as: % competition at 1 μM and 100 nM.
Table 3: Assessment of binding affinity by micro-radiobinding competition assay on human PD brain-derived alpha-synuclein aggregates. Percent (%) competition over the tritiated [^3H]-Example-1 ligand in the presence of 1 μM and 100 nM of example compounds 1-9. Ki values are also shown for selected example compounds. *, mean of Ki values in two independent experiments using PD brain-derived homogenates from two different donors.

| Compound | Selectivity for alpha-synuclein over Tau pathological aggregates (Tau aggregates; AD brain tissue) | Target engagement on Tau aggregates in AD brain tissue (Tau aggregates; AD tissue, compared to reference Tau ligand [3H]-Tau-Ref) | Kd [1] | Target engagement on Lewy bodies and Lewy neurites (silver grains co-localized with a-syn-pS129) [2] | Autoradiography signal in a genetic PD case ([3]; 2.5 nM to 80 nM, SNCA (G51D) brain sections) | Kd ([3]; human brain tissue sections, familial PD case (SNCA G51D missense mutation), autoradiography) | Autoradiographic signal in non-demented control cases ([4]; non-demented control (NDC) brain sections) | Target engagement in alpha-synucleinopathy tissues by autoradiography ([4]; one PDD, one LBV and one MSA case) | Ki ([5]; displacement of [3H]-Abeta-Ref (10 nM) on AD brain-derived homogenates) | Selectivity for alpha-synuclein over Abeta pathological aggregates ([5]; human AD brain homogenates versus PD brain binding affinity) | inhibition at 0.1 µM [6] | inhibition at 1 µM [6] | Ki [6] |
| --- | --- | --- | --- | --- | --- | --- | --- | --- | --- | --- | --- | --- | --- |
| [3H]c1cncc(N2Cc3cc(-c4cnc(N5CC[C@H](F)C5)c([3H])c4)nn3C2=O)c1 [[^3H]-Example-1] | good selectivity for alpha-synuclein over Tau | did not display specific target engagement; also recorded: No accumulation of silver grains | 18 nM | strong target engagement | dose-dependent autoradiography signal | 44 nM | very weak | displayed target engagement |  |  |  |  |  |
| O=C1N(c2cccnc2)Cc2cc(-c3ccc(N4CC[C@H](F)C4)nc3)nn21 [Example 1, (S)-2-(6-(3-fluoropyrrolidin-1-yl)pyridin-3-yl)-5-(pyridin-3-yl)-4H-imidazo[1,5-b]pyrazol-6(5H)-one hydrochloride] |  |  |  |  |  |  |  |  | 360 nM | good selectivity | 56% | 91% | 69 nM |
| Cc1nc(N2CC[C@@H](F)C2)ccc1-c1cc2n(n1)C(=O)N(c1cccnc1)C2 [Example 14, (R)-2-(6-(3-fluoropyrrolidin-1-yl)-2-methylpyridin-3-yl)-5-(pyridin-3-yl)-4,5-dihydro-6H-imidazo[1,5-b]pyrazol-6-one hydrogen chloride salt] |  |  |  |  |  |  |  |  |  |  | 56% | 85% | 80 nM |
| Cc1ncc(N2Cc3cc(-c4ccc(N5CC[C@@H](F)C5)nc4)nn3C2=O)s1 [Example 18, (R)-2-(6-(3-fluoropyrrolidin-1-yl)pyridin-3-yl)-5-(2-methylthiazol-5-yl)-4,5-dihydro-6H-imidazo[1,5-b]pyrazol-6-one hydrogen chloride salt] |  |  |  |  |  |  |  |  |  |  | 51% | 83% | 51 nM |
